The numbers were not newly measured in patent EP3003384B1 (Lamda Laboratories S.A., priority 2014, dated 2015), which cites them from elsewhere.

Where a name gives a salt, the structure may show the parent alone.

For the series the following is noted: at room temperature.

In the case of `CNCC[C@@H](Oc1ccccc1C)c1ccccc1` [atomoxetine hydrochloride], the soluble in water is 27.8 mg/mL.
